In patent US20090163515A1, “Compounds Which Bind to the Active Site of Protein Kinase Enzymes” (Biofocus Discovery Ltd., priority 2003, published 2009):

These compounds were tested on ROK (assay: ROK activity assay). Details: assays conducted at 1-100 μM.
Format: biochemical
Set-up: key: +: active; ++: more active; +++: very active
For CC(=O)c1ccc(-c2cnc(NCCc3ccncc3)cn2)s1 [1-{5-[5-(2-Pyridin-4-yl-ethylamino)-pyrazin-2-yl]-thiophen-2-yl}-ethanone], the ROK activity was “+”. In the case of OCCC1CCCCN1c1cnc(-c2ccncc2)cn1 (centres unmarked) [2-[1-(5-Pyridin-4-yl-pyrazin-2-yl)-piperidin-2-yl]-ethanol], the ROK activity is reported as “+”. In the case of Oc1cccc(Nc2cncc(-c3ccncc3)c2)c1 [3-([3,4′]Bipyridinyl-5-ylamino)-phenol], the ROK activity is reported as “++”. With Oc1cccc(CNc2cncc(-c3ccncc3)c2)c1 [3-([3,4′]Bipyridinyl-5-ylaminomethyl)-phenol] the ROK activity was “++”. With CC(C)C(CO)Nc1cnc(-c2ccncc2)cn1 (centres unmarked) [3-Methyl-2-(5-pyridin-4-yl-pyrazin-2-ylamino)-butan-1-ol] the ROK activity was “+”. NC(=O)c1cccc(-c2cncc(NCc3ccc(Cl)c(Cl)c3)c2)c1 [3-[5-(3,4-Dichloro-benzylamino)-pyridin-3-yl]-benzamide] was tested, and the ROK activity was “++”. NC(=O)c1cccc(-c2cncc(NCc3ccc(F)c(F)c3)c2)c1 [3-[5-(3,4-Difluoro-benzylamino)-pyridin-3-yl]-benzamide] was tested, and the ROK activity was “++”. In the case of NC(=O)c1cccc(-c2cncc(NCc3cc(O)cc(O)c3)c2)c1 [3-[5-(3,5-Dihydroxy-benzylamino)-pyridin-3-yl]-benzamide], the ROK activity is reported as “++”. In the case of NC(=O)c1cccc(-c2cncc(Nc3cccc(Br)c3)c2)c1 [3-[5-(3-Bromo-phenylamino)-pyridin3-yl]-benzamide], the ROK activity is reported as “+”. For NC(=O)c1cccc(-c2cncc(NCc3cccc(Cl)c3)c2)c1 [3-[5-(3-Chloro-benzylamino)-pyridin-3-yl]-benzamide], the ROK activity was “++”. In the case of COc1ccc(CNc2cncc(-c3cccc(C(N)=O)c3)c2)cc1O [3-[5-(3-Hydroxy-4-methoxy-benzylamino)-pyridin-3-yl]-benzamide], the ROK activity is reported as “++”. For O=C(NCCO)c1cccc(-c2cncc(NCc3cccc(O)c3)c2)c1 [3-[5-(3-Hydroxy-benzylamino)-pyridin-3-yl]-N-(2-hydroxy-ethyl)-benzamide], the ROK activity was “++”. With NC(=O)c1cccc(-c2cncc(NCc3cccc(O)c3)c2)c1 [3-[5-(3-Hydroxy-benzylamino)-pyridin-3-yl]-benzamide] the ROK activity was “+++”. For NC(=O)c1cccc(-c2cncc(Nc3cccc(O)c3)c2)c1 [3-[5-(3-Hydroxy-phenylamino)-pyridin-3-yl]-benzamide], the ROK activity was “++”. With NC(=O)c1cccc(-c2cncc(NCc3cccc(OC(F)(F)F)c3)c2)c1 [3-[5-(3-Trifluoromethoxy-benzylamino)-pyridin-3-yl]-benzamide] the ROK activity was “++”. For NC(=O)c1cccc(-c2cncc(NCc3ccc(Cl)c(F)c3)c2)c1 [3-[5-(4-Chloro-3-fluoro-benzylamino)-pyridin-3-yl]-benzamide], the ROK activity was “++”. NC(=O)c1cccc(-c2cncc(NCc3ccc(Cl)cc3)c2)c1 [3-[5-(4-Chloro-benzylamino)-pyridin-3-yl]-benzamide] was tested, and the ROK activity was “++”. With Oc1cccc(-c2cncc(Nc3ccc(Cl)cc3)c2)c1 [3-[5-(4-Chloro-phenylamino)-pyridin-3-yl]-phenol] the ROK activity was “+”. In the case of NC(=O)c1cccc(-c2cncc(NCc3ccc(O)cc3)c2)c1 [3-[5-(4-Hydroxy-benzylamino)-pyridin-3-yl]-benzamide], the ROK activity is reported as “++”. With COc1ccc(CNc2cncc(-c3cccc(C(N)=O)c3)c2)cc1 [3-[5-(4-Methoxy-benzylamino)-pyridin-3-yl]-benzamide] the ROK activity was “+”. COc1ccc(Nc2cncc(-c3cccc(C(N)=O)c3)c2)cc1 [3-[5-(4-Methoxy-phenylamino)-pyridin-3-yl]-benzamide] was tested, and the ROK activity was “+”. For COc1ccc(Nc2cncc(-c3cccc(O)c3)c2)cc1 [3-[5-(4-Methoxy-phenylamino)-pyridin-3-yl]-phenol], the ROK activity was “++”. With NC(=O)c1cccc(-c2cncc(NCC3CCCCC3)c2)c1 [3-[5-(Cyclohexylmethyl-amino)-pyridin-3-yl]-benzamide] the ROK activity was “+”. In the case of Oc1cccc(-c2cncc(Nc3ccc4ccccc4c3)c2)c1 [3-[5-(Naphthalen-2-ylamino)-pyridin-3-yl]-phenol], the ROK activity is reported as “+”. In the case of Oc1cccc(CNc2cncc(-c3ccncc3Cl)c2)c1 [3-[(3′-Chloro-[3,4′]bipyridinyl-5-ylamino)-methyl]-phenol], the ROK activity is reported as “+++”. Oc1cccc(CNc2cncc(-c3ccc4c(c3)OCO4)c2)c1 [3-[(5-Benzo[1,3]dioxol-5-yl-pyridin-3-ylamino)-methyl]-phenol] was tested, and the ROK activity was “++”. In the case of Oc1cccc(CNc2cncc(-c3cncc4ccccc34)c2)c1 [3-[(5-Isoquinolin-4-yl-pyridin-3-ylamino)-methyl]-phenol], the ROK activity is reported as “+”. With Oc1cccc(CNc2cncc(-c3ccccc3)c2)c1 [3-[(5-Phenyl-pyridin-3-ylamino)-methyl]-phenol] the ROK activity was “+”. In the case of Oc1cccc(CNc2cncc(-c3cccc4ncccc34)c2)c1 [3-[(5-Quinolin-5-yl-pyridin-3-ylamino)-methyl]-phenol], the ROK activity is reported as “+++”. With COc1cncc(-c2cncc(NCc3cccc(O)c3)c2)c1 [3-[(5′-Methoxy-[3,3′]bipyridinyl-5-ylamino)-methyl]-phenol] the ROK activity was “+”. For NC(=O)c1cccc(-c2cncc(NCc3ccc4c(c3)OCO4)c2)c1 [3-{5-[(Benzo[1,3]dioxol-5-ylmethyl)-amino]-pyridin-3-yl}-benzamide], the ROK activity was “+”. With NC(=O)c1cccc(-c2cncc(NCc3ccoc3)c2)c1 [3-{5-[(Furan-3-ylmethyl)-amino]-pyridin-3-yl}-benzamide] the ROK activity was “+”. NC(=O)c1cccc(-c2cncc(NCc3cccnc3)c2)c1 [3-{5-[(Pyridin-3-ylmethyl)-amino]-pyridin-3-yl}-benzamide] was tested, and the ROK activity was “+”. NC(=O)c1cccc(-c2cncc(NCC3CCCN3)c2)c1 (centres unmarked) [3-{5-[(Pyrrolidin-2-ylmethyl)-amino]-pyridin-3-yl}-benzamide] was tested, and the ROK activity was “+”. Oc1cccc(CNc2cncc(-c3ccc4[nH]ccc4c3)c2)c1 [3-{[5-(1H-Indol-5-yl)-pyridin-3-ylamino]-methyl}-phenol] was tested, and the ROK activity was “+”. In the case of Oc1cccc(CNc2cncc(-c3cc[nH]n3)c2)c1 [3-{[5-(1H-Pyrazol-3-yl)-pyridin-3-ylamino]-methyl}-phenol], the ROK activity is reported as “++”. Nc1cccc(-c2cncc(NCc3cccc(O)c3)c2)c1 [3-{[5-(3-Amino-phenyl)-pyridin-3-ylamino]-methyl}-phenol] was tested, and the ROK activity was “+”. For OCc1cccc(-c2cncc(NCc3cccc(O)c3)c2)c1 [3-{[5-(3-Hydroxymethyl-phenyl)-pyridin-3-ylamino]-methyl}-phenol], the ROK activity was “+”. Nc1ccc(-c2cncc(NCc3cccc(O)c3)c2)cc1 [3-{[5-(4-Amino-phenyl)-pyridin-3-ylamino]-methyl}-phenol] was tested, and the ROK activity was “+”. For OCc1ccc(-c2cncc(NCc3cccc(O)c3)c2)cc1 [3-{[5-(4-Hydroxymethyl-phenyl)-pyridin-3-ylamino]-methyl}-phenol], the ROK activity was “+”. For Oc1ccc(-c2cnc(NCc3ccccc3)cn2)cc1 [4-(5-Benzylamino-pyrazin-2-yl)-phenol], the ROK activity was “++”. Nc1ccc(C(=O)Nc2ccc(Nc3cnc(-c4ccncc4Cl)cn3)cc2)cc1 [4-Amino-N-{4-[5-(3-chloro-pyridin-4-yl)-pyrazin-2-ylamino]-phenyl}-benzamide] was tested, and the ROK activity was “++”. In the case of CC(Nc1cnc(-c2ccc(O)cc2)cn1)c1ccccc1 (centres unmarked) [4-[5-(1-Phenyl-ethylamino)-pyrazin-2-yl]-phenol], the ROK activity is reported as “++”. With Oc1ccc(-c2cnc(NCCc3ccncc3)cn2)cc1 [4-[5-(2-Pyridin-4-yl-ethylamino)-pyrazin-2-yl]-phenol] the ROK activity was “+”. Oc1ccc(-c2cncc(NCc3ccc(Cl)c(Cl)c3)c2)cc1 [4-[5-(3,4-Dichloro-benzylamino)-pyridin-3-yl]-phenol] was tested, and the ROK activity was “+”. In the case of Oc1ccc(-c2cncc(NCc3ccc(F)c(F)c3)c2)cc1 [4-[5-(3,4-Difluoro-benzylamino)-pyridin-3-yl]-phenol], the ROK activity is reported as “++”. With COc1ccc(CNc2cncc(-c3ccc(O)cc3)c2)cc1OC [4-[5-(3,4-Dimethoxy-benzylamino)-pyridin-3-yl]-phenol] the ROK activity was “+”. Oc1ccc(-c2cnc(NCc3cccc(Cl)c3)cn2)cc1 [4-[5-(3-Chloro-benzylamino)-pyrazin-2-yl]-phenol] was tested, and the ROK activity was “+”. With Oc1ccc(-c2cncc(NCc3cccc(Cl)c3)c2)cc1 [4-[5-(3-Chloro-benzylamino)-pyridin-3-yl]-phenol] the ROK activity was “++”. In the case of NC(=O)c1ccc(-c2cncc(NCc3cccc(O)c3)c2)cc1 [4-[5-(3-Hydroxy-benzylamino)-pyridin-3-yl]-benzamide], the ROK activity is reported as “+++”. In the case of Oc1ccc(-c2cncc(Nc3cccc(O)c3)c2)cc1 [4-[5-(3-Hydroxy-phenylamino)-pyridin-3-yl]-phenol], the ROK activity is reported as “++”. In the case of Oc1ccc(-c2cncc(NCc3cccc(OC(F)(F)F)c3)c2)cc1 [4-[5-(3-Trifluoromethoxy-benzylamino)-pyridin-3-yl]-phenol], the ROK activity is reported as “+”. In the case of Oc1ccc(-c2cncc(NCc3ccc(Cl)cc3)c2)cc1 [4-[5-(4-Chloro-benzylamino)-pyridin-3-yl]-phenol], the ROK activity is reported as “++”. COc1ccc(CNc2cncc(-c3ccc(O)cc3)c2)cc1 [4-[5-(4-Methoxy-benzylamino)-pyridin-3-yl]-phenol] was tested, and the ROK activity was “++”. With Oc1ccc(-c2cncc(NCC3CCCCC3)c2)cc1 [4-[5-(Cyclohexylmethyl-amino)-pyridin-3-yl]-phenol] the ROK activity was “+”. With NS(=O)(=O)c1ccc(CNc2cnc(-c3ccncc3)cn2)cc1 [4-[(5-Pyridin-4-yl-pyrazin-2-ylamino)-methyl]-benzenesulfonamide] the ROK activity was “++”. For CN(Cc1cccc(O)c1)c1cncc(-c2ccc(O)cc2)c1 [4-{5-[(3-hydroxy-benzyl)-methyl-amino]-pyridin-3-yl}-phenol], the ROK activity was “+”. For Oc1ccc(-c2cncc(NCc3ccc4c(c3)OCO4)c2)cc1 [4-{5-[(Benzo[1,3]dioxol-5-ylmethyl)-amino]-pyridin-3-yl}-phenol], the ROK activity was “++”. Oc1ccc(-c2cncc(NCc3ccoc3)c2)cc1 [4-{5-[(Furan-3-ylmethyl)-amino]-pyridin-3-yl}-phenol] was tested, and the ROK activity was “++”.
